Test results: PubChem BioAssay (NCI)
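48-hour exposure; five concentrations; linearly interpolated endpoints. Definition used: TGI = concentration required for complete inhibition of growth.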

Columns and labels:
Experiment in all cases: DTP human tumour cell line panel, 48 h
786-0 renal = test system: 786-0 renal
A498 renal = test system: A498 renal
A549 NSCLC = test system: A549 NSCLC
ACHN renal = test system: ACHN renal
BT-549 breast = test system: BT-549 breast
CAKI-1 renal = test system: CAKI-1 renal
CCRF-CEM leukemia = test system: CCRF-CEM leukemia
COLO 205 colon = test system: COLO 205 colon
DU-145 prostate = test system: DU-145 prostate
EKVX NSCLC = test system: EKVX NSCLC
HCC-2998 colon = test system: HCC-2998 colon
HCT-116 colon = test system: HCT-116 colon
HCT-15 colon = test system: HCT-15 colon
HL-60(TB) leukemia = test system: HL-60(TB) leukemia
HOP-62 NSCLC = test system: HOP-62 NSCLC
HOP-92 NSCLC = test system: HOP-92 NSCLC
HS 578T breast = test system: HS 578T breast
HT29 colon = test system: HT29 colon
IGROV1 ovarian = test system: IGROV1 ovarian
K-562 leukemia = test system: K-562 leukemia
KM12 colon = test system: KM12 colon
LOX IMVI melanoma = test system: LOX IMVI melanoma
M14 melanoma = test system: M14 melanoma
MALME-3M melanoma = test system: MALME-3M melanoma
MCF7 breast = test system: MCF7 breast
MDA-MB-231 breast = test system: MDA-MB-231 breast
MDA-MB-435 = test system: MDA-MB-435
MDA-N = test system: MDA-N
MOLT-4 leukemia = test system: MOLT-4 leukemia
NCI-H226 lung = test system: NCI-H226 lung
NCI-H460 lung = test system: NCI-H460 lung
NCI-H522 lung = test system: NCI-H522 lung
NCI/ADR-RES ovarian = test system: NCI/ADR-RES ovarian
OVCAR-3 ovarian = test system: OVCAR-3 ovarian
OVCAR-4 ovarian = test system: OVCAR-4 ovarian
OVCAR-5 ovarian = test system: OVCAR-5 ovarian
OVCAR-8 ovarian = test system: OVCAR-8 ovarian
PC-3 prostate = test system: PC-3 prostate
RXF 393 renal = test system: RXF 393 renal
SF-268 CNS = test system: SF-268 CNS
SF-295 CNS = test system: SF-295 CNS
SF-539 CNS = test system: SF-539 CNS
SK-MEL-2 melanoma = test system: SK-MEL-2 melanoma
SK-MEL-28 melanoma = test system: SK-MEL-28 melanoma
SK-MEL-5 melanoma = test system: SK-MEL-5 melanoma
SK-OV-3 ovarian = test system: SK-OV-3 ovarian
SN12C renal = test system: SN12C renal
SNB-19 CNS = test system: SNB-19 CNS
SR leukemia = test system: SR leukemia
SW-620 colon = test system: SW-620 colon
T-47D breast = test system: T-47D breast
TK-10 renal = test system: TK-10 renal
U251 CNS = test system: U251 CNS
UACC-257 melanoma = test system: UACC-257 melanoma
UACC-62 melanoma = test system: UACC-62 melanoma
NCI-H23 lung = test system: NCI-H23 lung
RPMI-8226 leukemia = test system: RPMI-8226 leukemia
SNB-75 CNS = test system: SNB-75 CNS
UO-31 renal = test system: UO-31 renal

Measured: TGI

Cc1ccc(NCc2nnc3c(-c4ccccc4)nc4ccccc4n23)cc1
65.5 µM: SK-MEL-2 melanoma
52.9 µM: PC-3 prostate
86.6 µM: COLO 205 colon
50 µM: HOP-92 NSCLC
68.3 µM: HL-60(TB) leukemia
30.4 µM: SK-MEL-5 melanoma
71.1 µM: LOX IMVI melanoma
9.62 µM: T-47D breast
84.1 µM: EKVX NSCLC
not listed: NCI-H23 lung | RPMI-8226 leukemia | SNB-75 CNS | UO-31 renal
> 100 µM: all other assays above

S=c1sscc1N1CCSc2ssc(=S)c21
43.5 µM: SNB-75 CNS
77.4 µM: A498 renal
38.2 µM: U251 CNS
81.8 µM: TK-10 renal
59.7 µM: NCI-H522 lung
49.8 µM: EKVX NSCLC
31 µM: HOP-92 NSCLC
69.8 µM: NCI-H23 lung
81.6 µM: DU-145 prostate
29.8 µM: OVCAR-4 ovarian
63.5 µM: SNB-19 CNS
18.9 µM: OVCAR-8 ovarian
not listed: HOP-62 NSCLC | OVCAR-3 ovarian | SF-295 CNS | SK-OV-3 ovarian
> 100 µM: all other assays above

CCN(CC)c1ccc2cc(-c3csc(-c4ccc(N(C)C)cc4)n3)c(=O)oc2c1
not listed: A498 renal | OVCAR-3 ovarian | NCI-H23 lung
> 100 µM: all other assays above

COC(=O)c1c(OC(C)=O)ccc2c1c1cc3ccccc3c(OC(C)=O)c1n2C
43.2 µM: 786-0 renal
36 µM: SNB-75 CNS
92.5 µM: TK-10 renal
36.7 µM: HS 578T breast
69.1 µM: HT29 colon
69.8 µM: COLO 205 colon
55.2 µM: SK-OV-3 ovarian
91.7 µM: HCC-2998 colon
31.2 µM: SK-MEL-5 melanoma
89.4 µM: ACHN renal
56.2 µM: MALME-3M melanoma
81.1 µM: BT-549 breast
39.8 µM: T-47D breast
62 µM: OVCAR-3 ovarian
70.3 µM: CAKI-1 renal
12.8 µM: IGROV1 ovarian
74 µM: HCT-116 colon
46 µM: A498 renal
44.6 µM: DU-145 prostate
91.1 µM: SF-539 CNS
42.9 µM: NCI-H522 lung
37 µM: HOP-92 NSCLC
not listed: LOX IMVI melanoma | SW-620 colon | UACC-257 melanoma
> 100 µM: all other assays above

CCCNC(=O)c1cc(NC(=O)c2cc(NC(=O)CCS(=O)(=O)OC)cn2C)cn1C
> 56.9 µM: HT29 colon
72.2 µM: DU-145 prostate
> 75.3 µM: CAKI-1 renal
53.5 µM: UACC-257 melanoma
68.8 µM: MDA-MB-435
42.1 µM: T-47D breast
> 71.7 µM: 786-0 renal
> 53.1 µM: HOP-62 NSCLC
47 µM: HOP-92 NSCLC
43.6 µM: LOX IMVI melanoma
29.7 µM: SN12C renal
> 56.5 µM: IGROV1 ovarian
> 73.6 µM: OVCAR-4 ovarian
4.82 µM: SNB-19 CNS
> 70.8 µM: MDA-MB-231 breast
22.7 µM: COLO 205 colon
48.7 µM: UACC-62 melanoma
30.3 µM: OVCAR-8 ovarian
6.07 µM: NCI-H522 lung
> 76.7 µM: M14 melanoma
> 69.8 µM: HCT-116 colon | MDA-N
44.1 µM: SK-MEL-5 melanoma
22.8 µM: SK-OV-3 ovarian
98.9 µM: PC-3 prostate
> 61.5 µM: KM12 colon
27.4 µM: OVCAR-3 ovarian
48.4 µM: SNB-75 CNS
29 µM: RXF 393 renal
40.7 µM: NCI-H23 lung
> 87.8 µM: MOLT-4 leukemia
24.6 µM: MALME-3M melanoma
53.8 µM: SK-MEL-2 melanoma
8.54 µM: BT-549 breast
3.67 µM: CCRF-CEM leukemia
not listed: HL-60(TB) leukemia | NCI-H226 lung | SF-268 CNS | SF-539 CNS
> 100 µM: all other assays above

N=c1oc2ccc(Cl)cc2cc1C(=O)NC1CCCCC1
89.1 µM: HCC-2998 colon
not listed: EKVX NSCLC | MALME-3M melanoma | NCI-H522 lung | SF-295 CNS | TK-10 renal | UO-31 renal
> 100 µM: all other assays above

O=C(O)CCCN=C(C(=NCCCC(=O)O)c1ccccc1)c1ccccc1
not listed: CAKI-1 renal | CCRF-CEM leukemia | HL-60(TB) leukemia | HOP-92 NSCLC | HT29 colon | MALME-3M melanoma | NCI-H522 lung | SF-539 CNS | SK-MEL-5 melanoma
> 100 µM: all other assays above
